Results taken from patent US20210330611A1, “THERAPY FOR NEUROLOGICAL DISEASES/DISORDERS” (priority 2020, published 2021).
Values joined by “and” are separate entries in the source; they are usually repeats but may differ in a detail not shown here. Equal values may be shown once. Read-outs that look alike come from different tables or passages of the source.

Key:
[1] = system: LPS-induced microglia activation; assay: Image-based assay of LPS-induced microglia activation (HTS and dose response); type: cell-based, rat; settings: for inhibition at 10 µM: 48 h, read-out: LPS % inhibition; for inhibition at 10 µM / LPS % inhibition: primary microglia HTS, LPS stimulation
primary rat microglia [2] = assay: Cell toxicity (dead cells, size <150 μm2) in coated fibrin (cFib) assay; settings: primary microglia HTS, fibrin stimulation;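 further: share of dead cells sized under 150 µm2 at 10 µM in fibrin-stimulated microglia HTS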
primary rat microglia [3] = assay: Cell toxicity (dead cells, size <150 μm2) in LPS assay; settings: primary microglia HTS, LPS stimulation
[4] = system: fibrin-induced microglia activation; assay: Image-based assay of fibrin-induced microglia activation (HTS and dose response); type: cell-based, rat; settings: for inhibition at 10 µM / Fibrin % inhibition: primary microglia HTS, fibrin stimulation; for inhibition at 10 µM: read-out: Fibrin % inhibition
[5] = system: fibrin- and LPS-induced microglia activation; assay: cells; type: cell-based, rat
[6] = Rattus norvegicus, Microglia, activation = cell size >800 μm2
[7] = quadrant by fibrin and LPS inhibition in HTS of 1907 compounds
[8] = activation = cell size >800 μm2
[9] = Rattus norvegicus, Microglia, increased cell size (>800 μm^2) as marker of activation
[10] = decreased size (<150 μm^2) as marker of toxicity

SMILES: CS(=O)(=O)c1ccc([C@@H](O)[C@@H](CF)NC(=O)C(Cl)Cl)cc1 [Florfenicol]
- inhibition at 10 µM [1, 6]: 16%
- Fibrin % cell toxicity (primary rat microglia [2]; toxicity = cell size <150 μm2): 1%
- LPS % cell toxicity (primary rat microglia [3]; toxicity = cell size <150 μm2): 1%
- inhibition at 10 µM [4, 6]: -12%
- Quadrant (FIG. 5b) [5, 7]: Q4

SMILES: Nc1nc(=O)[nH]cc1F [Flucytosine, 5-fluorocytosine]
- LPS % inhibition [1, 8]: 17%
- Fibrin % cell toxicity (primary rat microglia [2]; toxicity = cell size <150 μm2): 1%
- LPS % cell toxicity (primary rat microglia [3]; toxicity = cell size <150 μm2): 1%
- Fibrin % inhibition [4, 8]: 13%
- Quadrant (FIG. 5b) [5, 7]: Q4

SMILES: Nc1nc(F)nc2c1ncn2[C@@H]1O[C@H](COP(=O)(O)O)[C@@H](O)[C@@H]1O [Fludarabine Phosphate]
- inhibition at 10 µM [1, 6]: 11%
- Fibrin % cell toxicity (primary rat microglia [2]; toxicity = cell size <150 μm2): 1%
- LPS % cell toxicity (primary rat microglia [3]; toxicity = cell size <150 μm2): 0%
- inhibition at 10 µM [4, 6]: 1%
- Quadrant (FIG. 5b) [5, 7]: Q4

SMILES: O=C(O)c1ccccc1Nc1cccc(C(F)(F)F)c1 [Flufenamic Acid]
- inhibition at 10 µM [1, 6]: -1%
- Fibrin % cell toxicity (primary rat microglia [2]; toxicity = cell size <150 μm2): 0%
- LPS % cell toxicity (primary rat microglia [3]; toxicity = cell size <150 μm2): 0%
- inhibition at 10 µM [4, 6]: -20%
- Quadrant (FIG. 5b) [5, 7]: Q4

SMILES: CC1CCc2cc(F)cc3c(=O)c(C(=O)O)cn1c23 (stereo not shown) [Flumequine]
- inhibition at 10 µM [1, 6]: 16%
- Fibrin % cell toxicity (primary rat microglia [2]; toxicity = cell size <150 μm2): 0%
- LPS % cell toxicity (primary rat microglia [3]; toxicity = cell size <150 μm2): 1%
- inhibition at 10 µM [4, 6]: -1%
- Quadrant (FIG. 5b) [5, 7]: Q4

SMILES: Cc1c(Nc2ncccc2C(=O)O)cccc1C(F)(F)F [Flunixin Meglumine]
- inhibition at 10 µM [1, 6]: 8%
- Fibrin % cell toxicity (primary rat microglia [2]; toxicity = cell size <150 μm2): 1%
- LPS % cell toxicity (primary rat microglia [3]; toxicity = cell size <150 μm2): 0%
- inhibition at 10 µM [4, 6]: -6%
- Quadrant (FIG. 5b) [5, 7]: Q4

SMILES: O=C1OC2(c3ccc(O)cc3Oc3cc(O)ccc32)c2ccccc21 [Fluorescein]
- inhibition at 10 µM [1, 6]: 4%
- Fibrin % cell toxicity (primary rat microglia [2]; toxicity = cell size <150 μm2): 0%
- LPS % cell toxicity (primary rat microglia [3]; toxicity = cell size <150 μm2): 0%
- inhibition at 10 µM [4, 6]: -3%
- Quadrant (FIG. 5b) [5, 7]: Q4

SMILES: CC1(C)O[C@@H]2C[C@H]3[C@@H]4C[C@H](F)C5=CC(=O)CC[C@]5(C)[C@H]4[C@@H](O)C[C@]3(C)[C@]2(C(=O)CO)O1 [Flurandrenolide, reference compound]
- inhibition at 10 µM [1, 9]: 98%
- IC50 ([1]; Rattus norvegicus, Microglia, Table 7, read-out: LPS_IC50): 2 nM
- Fibrin % cell toxicity (primary rat microglia [2]; [10]): 6% and 5%
- LPS % cell toxicity (primary rat microglia [3]; [10]): 5%
- IC50 ([4]; Rattus norvegicus, Microglia, Table 7, read-out: fib_IC50): 2 nM
- inhibition at 10 µM [4, 9]: 110%
- Quadrant (FIG. 5b) ([5]; Table 2, screen at 10 μM): Q2
- Quadrant (FIG. 5b) [5, 7]: Q2

SMILES: CC(C(=O)O)c1ccc(-c2ccccc2)c(F)c1 (stereo not shown) [Flurbiprofen]
- inhibition at 10 µM [1, 6]: 33%
- Fibrin % cell toxicity (primary rat microglia [2]; toxicity = cell size <150 μm2): 0%
- LPS % cell toxicity (primary rat microglia [3]; toxicity = cell size <150 μm2): 0%
- inhibition at 10 µM [4, 6]: 17%
- Quadrant (FIG. 5b) [5, 7]: Q4

SMILES: NP(N)(=O)NC(=O)c1ccc(F)cc1 [Flurofamide]
- inhibition at 10 µM [1, 6]: -12%
- Fibrin % cell toxicity (primary rat microglia [2]; toxicity = cell size <150 μm2): 0%
- LPS % cell toxicity (primary rat microglia [3]; toxicity = cell size <150 μm2): 0%
- inhibition at 10 µM [4, 6]: 3%
- Quadrant (FIG. 5b) [5, 7]: Q4

SMILES: FC(F)(F)COCC(F)(F)F [Flurothyl]
- LPS % inhibition [1, 8]: 28%
- Fibrin % cell toxicity (primary rat microglia [2]; toxicity = cell size <150 μm2): 1%
- LPS % cell toxicity (primary rat microglia [3]; toxicity = cell size <150 μm2): 0%
- Fibrin % inhibition [4, 8]: 0%
- Quadrant (FIG. 5b) [5, 7]: Q4

SMILES: C=COCC(F)(F)F [Fluroxene]
- inhibition at 10 µM [1, 6]: 11%
- Fibrin % cell toxicity (primary rat microglia [2]; toxicity = cell size <150 μm2): 0%
- LPS % cell toxicity (primary rat microglia [3]; toxicity = cell size <150 μm2): 0%
- inhibition at 10 µM [4, 6]: -19%
- Quadrant (FIG. 5b) [5, 7]: Q4

SMILES: C[C@]12CCC(=O)C(O)=C1CC[C@@H]1[C@@H]2CC[C@]2(C)C(=O)CC[C@@H]12 [Formestane]
- inhibition at 10 µM [1, 6]: 10%
- Fibrin % cell toxicity (primary rat microglia [2]; toxicity = cell size <150 μm2): 1%
- LPS % cell toxicity (primary rat microglia [3]; toxicity = cell size <150 μm2): 0%
- inhibition at 10 µM [4, 6]: -6%
- Quadrant (FIG. 5b) [5, 7]: Q4

SMILES: O=C(O)P(=O)(O)O [Foscarnet]
- inhibition at 10 µM [1, 6]: 10%
- Fibrin % cell toxicity (primary rat microglia [2]; toxicity = cell size <150 μm2): 1%
- LPS % cell toxicity (primary rat microglia [3]; toxicity = cell size <150 μm2): 0%
- inhibition at 10 µM [4, 6]: 5%
- Quadrant (FIG. 5b) [5, 7]: Q4

SMILES: O=C(O)c1ccccc1OP(=O)(O)O [Fosfosal]
- inhibition at 10 µM [1, 6]: 16%
- Fibrin % cell toxicity (primary rat microglia [2]; toxicity = cell size <150 μm2): 0%
- LPS % cell toxicity (primary rat microglia [3]; toxicity = cell size <150 μm2): 1%
- inhibition at 10 µM [4, 6]: -29%
- Quadrant (FIG. 5b) [5, 7]: Q4

SMILES: CCC(=O)O[C@@H](O[P@](=O)(CCCCc1ccccc1)CC(=O)N1C[C@H](C2CCCCC2)C[C@H]1C(=O)O)C(C)C [Fosinopril]
- inhibition at 10 µM [1, 6]: -1%
- Fibrin % cell toxicity (primary rat microglia [2]; toxicity = cell size <150 μm2): 1%
- LPS % cell toxicity (primary rat microglia [3]; toxicity = cell size <150 μm2): 0%
- inhibition at 10 µM [4, 6]: -52%
- Quadrant (FIG. 5b) [5, 7]: Q4

SMILES: C[C@@H]1O[C@@H]1P(=O)(O)O [Fosphomycin]
- LPS % inhibition [1, 8]: 12%
- Fibrin % cell toxicity (primary rat microglia [2]; toxicity = cell size <150 μm2): 1%
- LPS % cell toxicity (primary rat microglia [3]; toxicity = cell size <150 μm2): 0%
- Fibrin % inhibition [4, 8]: 4%
- Quadrant (FIG. 5b) [5, 7]: Q4

SMILES: O=C1OC(CN2CCOCC2)CN1/N=C/c1ccc([N+](=O)[O-])o1 (stereo not shown) [Furaltadone]
- inhibition at 10 µM [1, 6]: 0%
- Fibrin % cell toxicity (primary rat microglia [2]; toxicity = cell size <150 μm2): 1%
- LPS % cell toxicity (primary rat microglia [3]; toxicity = cell size <150 μm2): 0%
- inhibition at 10 µM [4, 6]: -60%
- Quadrant (FIG. 5b) [5, 7]: Q4

SMILES: Oc1noc2c1CCNC2 [Gaboxadol]
- inhibition at 10 µM [1, 6]: 3%
- Fibrin % cell toxicity (primary rat microglia [2]; toxicity = cell size <150 μm2): 0%
- LPS % cell toxicity (primary rat microglia [3]; toxicity = cell size <150 μm2): 0%
- inhibition at 10 µM [4, 6]: -43%
- Quadrant (FIG. 5b) [5, 7]: Q4

SMILES: CC(O)CN1CCN(CC(=O)[O-])CCN(CC(=O)[O-])CCN(CC(=O)[O-])CC1.[Gd+3] (stereo not shown) [Gadoteridol]
- LPS % inhibition [1, 8]: 15%
- Fibrin % cell toxicity (primary rat microglia [2]; toxicity = cell size <150 μm2): 1%
- LPS % cell toxicity (primary rat microglia [3]; toxicity = cell size <150 μm2): 0%
- Fibrin % inhibition [4, 8]: −18%
- Quadrant (FIG. 5b) [5, 7]: Q4

SMILES: CC[N+](CC)(CC)CCOc1cccc(OCC[N+](CC)(CC)CC)c1OCC[N+](CC)(CC)CC [Gallamine Triethiodide]
- inhibition at 10 µM [1, 6]: 24%
- Fibrin % cell toxicity (primary rat microglia [2]; toxicity = cell size <150 μm2): 1%
- LPS % cell toxicity (primary rat microglia [3]; toxicity = cell size <150 μm2): 1%
- inhibition at 10 µM [4, 6]: -11%
- Quadrant (FIG. 5b) [5, 7]: Q4

SMILES: O=C(O)c1cc(O)c(O)c(O)c1 [Gallic Acid]
- inhibition at 10 µM [1, 6]: 10%
- Fibrin % cell toxicity (primary rat microglia [2]; toxicity = cell size <150 μm2): 0%
- LPS % cell toxicity (primary rat microglia [3]; toxicity = cell size <150 μm2): 0%
- inhibition at 10 µM [4, 6]: -32%
- Quadrant (FIG. 5b) [5, 7]: Q4

SMILES: O=C(O)CCCc1ccccc1 [Gamma-Phenyl-Butyric Acid]
- inhibition at 10 µM [1, 6]: 9%
- Fibrin % cell toxicity (primary rat microglia [2]; toxicity = cell size <150 μm2): 0%
- LPS % cell toxicity (primary rat microglia [3]; toxicity = cell size <150 μm2): 0%
- inhibition at 10 µM [4, 6]: -36%
- Quadrant (FIG. 5b) [5, 7]: Q4

SMILES: CC(=O)[C@H]1CC[C@H]2[C@@H]3CC[C@H]4C[C@](C)(O)CC[C@]4(C)[C@H]3CC[C@]12C [Ganaxolone]
- inhibition at 10 µM [1, 6]: 12%
- Fibrin % cell toxicity (primary rat microglia [2]; toxicity = cell size <150 μm2): 1%
- LPS % cell toxicity (primary rat microglia [3]; toxicity = cell size <150 μm2): 0%
- inhibition at 10 µM [4, 6]: -38%
- Quadrant (FIG. 5b) [5, 7]: Q4

SMILES: Nc1nc(O)c2ncn(COC(CO)CO)c2n1 [Ganciclovir]
- inhibition at 10 µM [1, 6]: 13%
- Fibrin % cell toxicity (primary rat microglia [2]; toxicity = cell size <150 μm2): 0%
- LPS % cell toxicity (primary rat microglia [3]; toxicity = cell size <150 μm2): 0%
- inhibition at 10 µM [4, 6]: -2%
- Quadrant (FIG. 5b) [5, 7]: Q4

SMILES: COc1c(N2CCNC(C)C2)c(F)cc2c(=O)c(C(=O)O)cn(C3CC3)c12 (stereo not shown) [Gatifloxacin]
- inhibition at 10 µM [1, 6]: 19%
- Fibrin % cell toxicity (primary rat microglia [2]; toxicity = cell size <150 μm2): 1%
- LPS % cell toxicity (primary rat microglia [3]; toxicity = cell size <150 μm2): 0%
- inhibition at 10 µM [4, 6]: -19%
- Quadrant (FIG. 5b) [5, 7]: Q4

SMILES: Nc1ccn([C@@H]2O[C@H](CO)[C@@H](O)C2(F)F)c(=O)n1 [Gemcitabine]
- inhibition at 10 µM [1, 6]: 0%
- Fibrin % cell toxicity (primary rat microglia [2]; toxicity = cell size <150 μm2): 1%
- LPS % cell toxicity (primary rat microglia [3]; toxicity = cell size <150 μm2): 0%
- inhibition at 10 µM [4, 6]: -31%
- Quadrant (FIG. 5b) [5, 7]: Q4

SMILES: Cc1ccc(C)c(OCCCC(C)(C)C(=O)O)c1 [Gemfibrozil]
- inhibition at 10 µM [1, 6]: 10%
- Fibrin % cell toxicity (primary rat microglia [2]; toxicity = cell size <150 μm2): 0%
- LPS % cell toxicity (primary rat microglia [3]; toxicity = cell size <150 μm2): 0%
- inhibition at 10 µM [4, 6]: -47%
- Quadrant (FIG. 5b) [5, 7]: Q4

SMILES: CO/N=C1\CN(c2nc3c(cc2F)c(=O)c(C(=O)O)cn3C2CC2)CC1CN (stereo not shown) [Gemifloxacin]
- inhibition at 10 µM [1, 6]: 6%
- Fibrin % cell toxicity (primary rat microglia [2]; toxicity = cell size <150 μm2): 0%
- LPS % cell toxicity (primary rat microglia [3]; toxicity = cell size <150 μm2): 0%
- inhibition at 10 µM [4, 6]: -34%
- Quadrant (FIG. 5b) [5, 7]: Q4
